# Entries after “also recorded” stand apart in the source; their conditions may differ. Where a SMILES comes first, the peptide text is derived from it. [ ]: non-standard residue; d: D form. N(2-ethylhexyl)Gly = CCCCC(CC)CNCC(=O)O; Gly(N-dodecyl) = CCCCCCCCCCCCNCC(=O)O; N(CH(CH2OH)2)Gly = O=C(O)CNC(CO)CO; NHexGly = CCCCCCNCC(=O)O
# Experiments:
# BALB/c mice = assay: In vivo fLuc mRNA expression after IV dose, whole body and organ bioluminescence; settings: for fLuc (luciferase) expression in vivo: BALB/c mice, IV, luminescence 6 hours after dose, lipid block screen; for luciferase expression in vivo, comparison of monomer order isomers: Compound 31 versus Compound 41
# Excerpt: In one particular instance, peptoids disclosed herein were formulated into delivery vehicles by first dissolving in ethanol along with DSPC, cholesterol, and DMG-PEG2000 at weight ratio of 20:1.8:7.2:1.8 (Formulation D22 in Table 3, above), then mixed with firefly luciferase (fLuc) mRNA dissolved in an aqueous buffer at a volume ratio of 1:3 via microfluidic nanoprecipitation on a turbulent mixing device, resulting in small, low dispersity particles. Physical particle properties were characterized. Delivery vehicles with initial sizes larger than 120 nm were not brought forward into in vivo screening as liver fenestrae primarily accommodate LNPs sized under 100 nm. In vivo expression of delivery vehicles comprising peptoids with varied headgroups was evaluated using fLuc expression in BALB/c mice 6 hours after IV dose (FIG. 1). […] The aminoethyl and aminopropyl headgroups both show preferential expression in lung (FIG. 2), potentially due to the high basicity of the pendant primary amine, as groups with higher pKas are known to accumulate in that organ. […] While spleen and lung selectivity merit further optimization for future therapeutic applications, liver-selective targets were used for further studies herein to prepare for systemic delivery of antibody targets and maximize their serum expression with anti-RSV cargo.
# Intravenous administration. The delivery vehicle complexes disclosed herein are effective for in vivo administration of Fluc mRNA to BALB/c mice through multiple routes of administration. In general, delivery system complexes were administered at a dose of 0.5 mg/kg via a tail-vein injection, and the resulting bioluminescence was quantified after 6 hours. Organ-specific bioluminescence was quantified by sacrificing the treated animal, dissecting out the organs of interest, and separately quantifying the resulting bioluminescence
# In one particular instance, to investigate how the peptoid lipid block impacts in vivo expression, delivery vehicles with diameter larger than 120 nm were excluded and remaining candidates were administered IV to BALB/c mice. Luminescence was measured after 6 hours and the resulting expression in liver, lung and spleen were quantified. Even without changing the cationic headgroup, luciferase expression spanned 4 orders of magnitude as a result of altering the lipid block in this series. […] In vivo expression of all candidates was then fit to a multi-parameter model containing the 4 input parameters to understand the individual contributions of each factor to overall performance. […] Contour plots of the impact of these factors on expression (all using Ehx as the branched/unsaturated monomer) are shown in FIG. 4.
# For imaging studies, female BALB/c mice (6-8 weeks old) were obtained and acclimatized for a minimum of 3 days prior to experiments. The animals were maintained on a 12 hour light cycle in a temperature and humidity controlled room. A daily health check was performed as well as food and water check. For dosing, mice were injected with 2.5 μg fLuc mRNA-containing delivery vehicles intravenously in 100 μL total injection volume. At 6 hours post-injection, mice were anesthetized with isoflurane, and injected intraperitoneally with 30 mg/mL D-luciferin at a dose of 10 μL per gram bodyweight intraperitoneally. Imaging was done 10 minutes post D-luciferin injection using an IVIS® Spectrum Imaging System. Immediately after in vivo imaging, mice were terminally bled by cardiac puncture and euthanized. The organs of interest were harvested, placed in black 24-well plates, and imaged. Living Image® software was used to quantify the total photon flux in regions of interest. For secreted protein studies, mice were injected with aRSV mRNA-containing delivery vehicles intravenously in 100 μL total injection volume. Mice were euthanized after 24 hours, with serum collection at 6 and 24 hours post-injection. […]
# [1] = Particle size and polydispersity (PDI) of delivery vehicles by dynamic light scattering; assay type: physicochemical; settings: Table 5; delivery vehicle comprising the peptoid, Formulation D22, fLuc mRNA
# Outline: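 Dynamic light scattering of formulated samples diluted to 2 ng/μL in PBS. Size reported as hydrodynamic diameter (nm) from cumulant fit of the correlation function, with its polydispersity index.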
# [2] = Zeta potential of delivery vehicles; assay type: physicochemical; settings: Table 5; delivery vehicle, pH 7 buffer; in mV (unit assumed)
# [3] = Percent encapsulated mRNA, RiboGreen assay; assay type: physicochemical; settings: Table 5; delivery vehicle comprising the peptoid, Formulation D22, fLuc mRNA
# Outline: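 Modified RiboGreen fluorescence assay on Fluc mRNA formulations diluted to 500 ng/ml in Tris-EDTA. Samples were read with and without Triton X-100 lysis (2% for 10 min in one protocol). Percent encapsulation was derived from the fluorescence ratio of intact versus lysed particles.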
# [4] = Apparent particle pKa, TNS fluorescence assay; assay type: physicochemical; settings: Table 5; apparent particle pKa of delivery vehicle
# Procedure: The apparent particle pKa was assessed by a TNS fluorescence assay. Briefly, particles were diluted to 130 uM total lipid in TNS buffer ranging in pH 3-11 for 10 minutes with […] of TNS probe. The fluorescence was measured at room temperature in a plate reader ex 320/em 445. Fluorescence intensity was normalized to the minimal and maximal values and the pKa was determined by a 3 parameter fit to determine the half maximum of the curve.
SMILES,fLuc (luciferase) expression in vivo (BALB/c mice),PDI [1],Particle Size (nm) [1] [nm],Zeta Potential [2],% Encapsulation [3] [%],pKa (TNS) [4],"luciferase expression in vivo, comparison of monomer order isomers (BALB/c mice)"
CCCCCCN(CC(N)=O)C(=O)CN(CC(CC)CCCC)C(=O)CN(CC(CC)CCCC)C(=O)CN(CCCCCC)C(=O)CN(CC(CC)CCCC)C(=O)CN(CC(CC)CCCC)C(=O)CNC(CO)CO (stereo not shown) [Compound 12] (H-[N(CH(CH2OH)2)Gly][N(2-ethylhexyl)Gly][N(2-ethylhexyl)Gly][NHexGly][N(2-ethylhexyl)Gly][N(2-ethylhexyl)Gly][NHexGly]-NH2),top expressers; also recorded: highest overall fLuc expression,0.32,91.4,−8.68,97.4,6.018,
CCCCCCCCCCCCN(CC(=O)N(CC(=O)N(CC(=O)N(CCCCCCCCCCCC)CC(=O)N(CC(=O)N(CC(N)=O)CC(CC)CCCC)CC(CC)CCCC)CC(CC)CCCC)CC(CC)CCCC)C(=O)CNC(CO)CO (stereo not shown) [Compound 31] (H-[N(CH(CH2OH)2)Gly][Gly(N-dodecyl)][N(2-ethylhexyl)Gly][N(2-ethylhexyl)Gly][Gly(N-dodecyl)][N(2-ethylhexyl)Gly][N(2-ethylhexyl)Gly]-NH2),,0.1,80.8,−11.2,86.9,6.523,within error
CCCCCCCCCCCCN(CC(=O)N(CC(N)=O)CC(CC)CCCC)C(=O)CN(CCCCCC)C(=O)CN(CC(CC)CCCC)C(=O)CN(CCCCCCCCCCCC)C(=O)CN(CCCCCC)C(=O)CNC(CO)CO (stereo not shown) [Compound 34] (H-[N(CH(CH2OH)2)Gly][NHexGly][Gly(N-dodecyl)][N(2-ethylhexyl)Gly][NHexGly][Gly(N-dodecyl)][N(2-ethylhexyl)Gly]-NH2),top expressers,0.093,118.4,−9.58,71.2,6.374,
CCCCCCCCCCCCN(CC(=O)N(CC(=O)N(CC(=O)N(CCCCCCCCCCCC)CC(=O)N(CC(N)=O)CC(CC)CCCC)CC(CC)CCCC)CC(CC)CCCC)C(=O)CN(CC(CC)CCCC)C(=O)CNC(CO)CO (stereo not shown) [Compound 41] (H-[N(CH(CH2OH)2)Gly][N(2-ethylhexyl)Gly][Gly(N-dodecyl)][N(2-ethylhexyl)Gly][N(2-ethylhexyl)Gly][Gly(N-dodecyl)][N(2-ethylhexyl)Gly]-NH2),top expressers,0.15,75.7,−5.38,94.2,6.068,within error

# From patent US20260083769A1, “2-Aminopropane-1,3-Diol-Capped Cationic Peptoids for Nucleic Acid Delivery” (NUTCRACKER THERAPEUTICS, INC., priority 2022, published 2026)
